Measurements: PubChem BioAssay AID2060618 (Molecular Pharmacology Branch, DTP, NCI, 2025)

Tested on: 454973-116-R2-J3-PDC spheroids, percent test/control viability
Assay: Anticancer human tumor 454973-116-R2-J3-PDC patient-derived pancreatic carcinoma cell line growth inhibition [CLK]
Conditions: spheroids with HUVEC and MSC; for IC50: curve of first compound; for viability, T/C: stronger effect = lower value; active = viability on the fitted dose curve at most 10% of control; inactive = the rest
Outline: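 Patient-derived tumor cells grown as complex spheroids with HUVEC endothelial cells and mesenchymal stem cells, treated with drug combinations. Concentrations descend in half-log steps from near clinical Cmax, or from 10 microM if Cmax unknown.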
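Also: spheroids exposed to compounds for 7 days before readout.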

CC(C)CC(NC(=O)C(Cc1ccccc1)NC(=O)c1cnccn1)B(O)O (centres undefined) + CN1CCN(c2cc(C(=O)Nc3cc4cc(-c5cnn(C)c5)ccc4cn3)ccn2)CC1
< 0.949 nM: IC50 (second compound 0.316 µM) | IC50 (second compound 1 µM) | IC50 (second compound 3.16 µM) | IC50 (second compound 10 µM)
3.31 nM: IC50 (second compound 0.0316 µM)
active: viability, T/C (second compound 0.0316 µM, first compound 0.00949 µM) 0.27% | viability, T/C (second compound 0.0316 µM, first compound 0.03 µM) 0.3% | viability, T/C (second compound 0.0316 µM, first compound 0.0949 µM) 0.17% | viability, T/C (second compound 0.0316 µM, first compound 0.3 µM) 0.14% | viability, T/C (second compound 0.1 µM, first compound 0.00949 µM) 0.41% | viability, T/C (second compound 0.1 µM, first compound 0.03 µM) 0.19% | viability, T/C (second compound 0.1 µM, first compound 0.0949 µM) 0.16% | viability, T/C (second compound 0.1 µM, first compound 0.3 µM) 0.14% | viability, T/C (second compound 0.316 µM, first compound 0.000949 µM) 2.21% | viability, T/C (second compound 0.316 µM, first compound 0.003 µM) 0.7% | viability, T/C (second compound 0.316 µM, first compound 0.00949 µM) 1.43% | viability, T/C (second compound 0.316 µM, first compound 0.03 µM) 0.12% | viability, T/C (second compound 0.316 µM, first compound 0.0949 µM) 0.11% | viability, T/C (second compound 0.316 µM, first compound 0.3 µM) 0.09% | viability, T/C (second compound 1 µM, first compound 0.000949 µM) 0.12% | viability, T/C (second compound 1 µM, first compound 0.003 µM) 0.19% | viability, T/C (second compound 1 µM, first compound 0.00949 µM) 0.09% | viability, T/C (second compound 1 µM, first compound 0.03 µM) 0.05% | viability, T/C (second compound 1 µM, first compound 0.0949 µM) 0.07% | viability, T/C (second compound 1 µM, first compound 0.3 µM) 0.07% | viability, T/C (second compound 3.16 µM, first compound 0.000949 µM) 0.16% | viability, T/C (second compound 3.16 µM, first compound 0.003 µM) 1.02% | viability, T/C (second compound 3.16 µM, first compound 0.00949 µM) 0.07% | viability, T/C (second compound 3.16 µM, first compound 0.03 µM) 0.05% | viability, T/C (second compound 3.16 µM, first compound 0.0949 µM) 0.6% | viability, T/C (second compound 3.16 µM, first compound 0.3 µM) 0.79% | viability, T/C (second compound 10 µM, first compound 0.000949 µM) 0.09% | viability, T/C (second compound 10 µM, first compound 0.003 µM) 0.13% | viability, T/C (second compound 10 µM, first compound 0.00949 µM) 0.88% | viability, T/C (second compound 10 µM, first compound 0.03 µM) 0.09% | viability, T/C (second compound 10 µM, first compound 0.0949 µM) 0.16% | viability, T/C (second compound 10 µM, first compound 0.3 µM) 0.17%
inactive: viability, T/C (second compound 0.0316 µM, first compound 0.000949 µM) 94.4% | viability, T/C (second compound 0.0316 µM, first compound 0.003 µM) 54.7% | viability, T/C (second compound 0.1 µM, first compound 0.000949 µM) 73.7% | viability, T/C (second compound 0.1 µM, first compound 0.003 µM) 14.8%
1.5 nM: IC50 (second compound 0.1 µM)

CC1COCCN1c1cc(C2(S(C)(=N)=O)CC2)nc(-c2ccnc3[nH]ccc23)n1 (centres undefined) + CN1CCN(c2cc(C(=O)Nc3cc4cc(-c5cnn(C)c5)ccc4cn3)ccn2)CC1
< 31.6 nM: IC50 (second compound 0.316 µM) | IC50 (second compound 1 µM) | IC50 (second compound 3.16 µM) | IC50 (second compound 10 µM)
7240 nM: IC50 (second compound 0.0316 µM)
active: viability, T/C (second compound 0.316 µM, first compound 0.0316 µM) 1.53% | viability, T/C (second compound 0.316 µM, first compound 0.1 µM) 2.23% | viability, T/C (second compound 0.316 µM, first compound 0.316 µM) 1.84% | viability, T/C (second compound 0.316 µM, first compound 1 µM) 1.74% | viability, T/C (second compound 0.316 µM, first compound 3.16 µM) 1.04% | viability, T/C (second compound 0.316 µM, first compound 10 µM) 0.46% | viability, T/C (second compound 1 µM, first compound 0.0316 µM) 0.13% | viability, T/C (second compound 1 µM, first compound 0.1 µM) 0.13% | viability, T/C (second compound 1 µM, first compound 0.316 µM) 0.16% | viability, T/C (second compound 1 µM, first compound 1 µM) 0.1% | viability, T/C (second compound 1 µM, first compound 3.16 µM) 0.11% | viability, T/C (second compound 1 µM, first compound 10 µM) 0.1% | viability, T/C (second compound 3.16 µM, first compound 0.0316 µM) 0.17% | viability, T/C (second compound 3.16 µM, first compound 0.1 µM) 0.21% | viability, T/C (second compound 3.16 µM, first compound 0.316 µM) 0.22% | viability, T/C (second compound 3.16 µM, first compound 1 µM) 0.2% | viability, T/C (second compound 3.16 µM, first compound 3.16 µM) 0.15% | viability, T/C (second compound 3.16 µM, first compound 10 µM) 0.21% | viability, T/C (second compound 10 µM, first compound 0.0316 µM) 1.56% | viability, T/C (second compound 10 µM, first compound 0.1 µM) 0.21% | viability, T/C (second compound 10 µM, first compound 0.316 µM) 0.22% | viability, T/C (second compound 10 µM, first compound 1 µM) 0.31% | viability, T/C (second compound 10 µM, first compound 3.16 µM) 0.25% | viability, T/C (second compound 10 µM, first compound 10 µM) 0.6%
4520 nM: IC50 (second compound 0.1 µM)
inactive: viability, T/C (second compound 0.0316 µM, first compound 0.0316 µM) 97.4% | viability, T/C (second compound 0.0316 µM, first compound 0.1 µM) 105% | viability, T/C (second compound 0.0316 µM, first compound 0.316 µM) 96.2% | viability, T/C (second compound 0.0316 µM, first compound 1 µM) 106% | viability, T/C (second compound 0.0316 µM, first compound 3.16 µM) 83.3% | viability, T/C (second compound 0.0316 µM, first compound 10 µM) 37.1% | viability, T/C (second compound 0.1 µM, first compound 0.0316 µM) 73.4% | viability, T/C (second compound 0.1 µM, first compound 0.1 µM) 80.5% | viability, T/C (second compound 0.1 µM, first compound 0.316 µM) 91.4% | viability, T/C (second compound 0.1 µM, first compound 1 µM) 77.5% | viability, T/C (second compound 0.1 µM, first compound 3.16 µM) 62.9% | viability, T/C (second compound 0.1 µM, first compound 10 µM) 21.5%
